Measured values: patent US12391768B2, “Antibodies to ticagrelor and methods of use” (MEDIMMUNE LIMITED, priority 2014, dated 2025)
Each block holds one molecule with its values, some of them ahead of it.

Columns and labels:
mouse tail bleeding = assay: Prophylactic mouse tail bleeding study; format: in vivo, mice
Experimental: (§1) Mice were pre-treated with a continuous infusion of ticagrelor, 300 μg/kg/min or vehicle for 20 minutes. After stop of infusion, t=0, a bolus dose of TICA0212/MEDI2452 (600 mg/kg) or vehicle (histidine sucrose buffer) was given over 45 seconds and at t=30 minutes bleeding was induced by cutting 5mm from the tip of the tail. The tip of the tail was rinsed with water (2 mL/min) and the blood and water mixture was collected in a small chamber, where a stirrer mixed the fluid to enhance haemolysis and establish a homogeneous solution. Light transmission, at 525 nm, was recorded for 30 minutes when terminal blood samples were collected from the abdominal aorta for platelet aggregation. Light transmittance was transformed to absorbance and used to calculate blood loss as area under the absorbance curve (AUC, absorbance*s) and total bleeding time (BT, s) by plotting absorbance over time. All transmittance below 95% was defined as bleeding. Samples for platelet aggregation and total and free plasma exposure were also collected at end of ticagrelor infusion (t=0) and at time of tail cut (t=30 minutes).
Studies were approved by the ethical committee for animal research at the University of Göteborg, Sweden. Mice were anaesthetised with isofluran gas (Forenc®, Abbot Scandinavia AB, Sweden). A catheter was inserted in the left jugular vein for administration of vehicle or drug. The body temperature was maintained at 38° C. by external heating.
To translate the effect of TICA0212/MED12452 on platelet aggregation to a potential effect on bleeding, a prophylactic mouse tail bleeding study was performed. Ticagrelor was infused to a mean total ticagrelor and TAM plasma concentration of 7.6 and 0.3 μM, respectively, to provide a significant drug-dependant bleeding window. Immediately after stopping the ticagrelor infusion TICA0212/MEDI2452 was dosed as a single bolus of 600 mg/kg over 30 seconds. […] Bleeding was initiated by a tail cut and monitored for 30 minutes. In vehicle treated mice the mean total ticagrelor and TAM plasma concentration at time of tail cut were 2.4 and 0.6 μM. […] In this prophylactic setting TICA0212/MED12452 normalized ticagrelor dependent bleeding.

[1] = test system: ADP-induced platelet aggregation in whole blood; assay: Ex vivo whole blood impedance aggregometry after i.v. dosing of ticagrelor treated mice; format: in vivo; conditions: for mean ADP-induced aggregation response: n=4
Experimental: The speed of onset and the extent of TICA0212/MEDI2452 mediated reversal of ticagrelor mediated inhibition of ADP-induced platelet aggregation in whole blood (impedance aggregometry) was determined ex vivo after intravenous (i.v.) dosing of ticagrelor in mice. Mice were given ticagrelor i.v. as a bolus of 1200 μg/kg. over 5 minutes, followed by a 15 min continuous infusion of 30 μg/kg/min. After termination of the ticagrelor infusion, when ticagrelor plasma exposure was measured to be in average 1.4 μM, mice were given an i.v. bolus of 250 mg/kg TICA0212/MEDI2452. At 5, 30, and 60 min post TICA0212/MEDI2452 administration mice were sacrificed and blood samples were collected. In this study the ADP-induced aggregation response was measured for 6 min and data expressed as the mean area under the curve of aggregation unit (AU) recorded over time (AU*min).
In carrying out the impedance aggregometry assay, mice were sacrificed and blood samples were collected into 7 μM hirudin. Blood (175 μL) was added to pre-heated […] (37° C., 175 μL) in the Multiplate mini test cells and mixed for 3 min before addition of ADP, 12 μL, to a final concentration of 6.5 μM. The disposable Multiplate mini test cells contain a stir bar and have two separate pair of electrodes that are immersed into the blood sample.
When agonist (ADP) is added and shear is induced by stirring, platelets will start to adhere and aggregate onto the electrodes.
as §1

TICA0162 Fab = assay: HTRF competition binding selectivity assay, TICA0162 His-Fab; set-up: species or system human; conditions: Table 7, DMSO normalised; 5 nM biotinylated ticagrelor, 1 nM His Fab; read-out: IC50 (uM) for inhibition of biotinylated ticagrelor binding to TICA0162 Fab
Experimental: Total Binding control wells were set up which contained all of the assay components above except that 5 ul assay buffer was added in place of the test selectivity compound addition. Negative Binding control wells were set up which contained all of the assay components included in the Total Binding control wells except that 5ul assay buffer was added in place of the His-Fab addition. Test compound serial titrations were either ½ or ⅓ depending on the particular experiment and top final assay compound concentrations were optimized on a compound specific basis. The concentration of biotinylated ticagrelor and His-Fab was optimized on a Fab specific basis in separate experiments. For the four Fabs investigated at the end of the lead isolation phase (TICA0010, TICA0049, TICA0053 and TICA0072) the final assay reagent concentrations used are set out in Table 1 below:
For the two Fabs investigated at the end of the lead optimization phase (TICA0162 and TICA0212) the final assay reagent concentrations used were 5nM biotinylated ticagrelor and 1 nM His Fab in both cases. […] In order to enable subsequent normalization of data to correct for any such vehicle related effects parallel titrations of DMSO alone were included in most experiments in which the final assay DMSO concentrations mirrored those of the test compound serial dilutions. At the end of the set up procedure that assay was incubated for 3hrs at RT before being read on an Envision plate reader using a standard read protocol. […]
In those experiments where DMSO normalization was applied DMSO normalised % Specific Binding was calculated essentially according to the equation above except that in this case Total Binding Delta F was taken from wells containing all of the components in the Total Binding control wells as well as DMSO at a concentration equivalent to that in the relevant sample well.

[2] = ticagrelor versus vehicle, p<0.05
[3] = 5 min after ticagrelor infusion (1200 μg/kg bolus + 30 μg/kg/min) and bolus (PBS or 250 mg/kg Fab i.v.)
[4] = 30 min after ticagrelor infusion (1200 μg/kg bolus + 30 μg/kg/min) and bolus (PBS or 250 mg/kg Fab i.v.)
[5] = 60 min after ticagrelor infusion (1200 μg/kg bolus + 30 μg/kg/min) and bolus (PBS or 250 mg/kg Fab i.v.)
[6] = 600 mg/kg bolus 30 min before tail cut, n=12

bleeding time over 30 minutes, enhancement (mouse tail bleeding; [2]): ~1.6 fold
total blood loss over 30 minutes, enhancement (mouse tail bleeding; [2]): about 3.8 fold
IC50 (TICA0162 Fab): 0.023 µM
Molecule: CCCSc1nc(N[C@@H]2C[C@H]2c2ccc(F)c(F)c2)c2nnn([C@@H]3C[C@H](OCCO)[C@@H](O)[C@H]3O)c2n1 [Ticagrelor, (1S,2S,3R,5S)-3-[7-{[(1R,2S)-2-(3,4-difluorophenyl)cyclopropyl]amino}-5-(propylthio)-3H-[1,2,3]triazolo[4,5-d]pyrimidin-3-yl]-5-(2-hydroxyethoxy)cyclopentane-1,2-diol]
mean ADP-induced aggregation response [1, 3]: 2 AU*min
mean ADP-induced aggregation response [1, 4]: 6 AU*min
mean ADP-induced aggregation response [1, 5]: 14 AU*min

B1: TICA0212: combination of TICA0162 and TICA0152; VH SEQ ID NO:72, VL SEQ ID NO:77 (antibody, listed as Homo sapiens, V domains shown)
VH: QVQLQESGAEVKKPGSSVRVSCKASGGTFDSYSIHWVRQAPGQGLEWMGGIIPAFGTLSSAQDFQARVTISADKSTSTAYMELSGLRSEDTAVYYCARGSFDYYFWSASHPPNDALAIWGQGTLVTVSS
VL: QSVVTQPPSVSAAPGQKVTISCSGSNSDIGNNYVSWYQQLPGTAPKLLIYDNNKRPSGIPDRFSGSKSGTSATLAITGLQAGDEADYYCGTWLYDRAVGLFGGGTKVTVL
bleeding time relative ticagrelor alone (mouse tail bleeding; [6]): significantly (p<0.05) reversed
blood loss relative ticagrelor alone (mouse tail bleeding; [6]): significantly (p<0.05) reversed
mean ADP-induced aggregation response [1, 3]: 147 AU*min
mean ADP-induced aggregation response [1, 4]: 448 AU*min
mean ADP-induced aggregation response [1, 5]: 413 AU*min
ADP-induced aggregation ([1]; Example 12, 30 minutes after single bolus of 600 mg/kg, ticagrelor 300 μg/kg/min for 20 min): fully normalized
